Columns and labels:
[1] = target: HDAC1 (Homo sapiens, UniProt Q13547); test: Deacetylation activity selectivity, HDAC1; format: biochemical
Description: (§1) Based on the above results, 8a was further investigated in this study. […] To further evaluate the selectivity of 8a for SIRT6, we examined the effect of 8a on the deacetylation activity of other HDAC family members, including HDAC1-HDAC11, SIRT1-SIRT3 and SIRT5. […] Furthermore, to confirm binding of 8a to SIRT6 in cells, we carried out the cellular thermal shift assay (CETSA). The CETSA approach builds on the thermal shift assay concept where ligand binding to its target protein enhances the target protein stability. We observed that the thermal stability of SIRT6 increased after 8a treatment (Figs. 2c, d).

[2] = target: HDAC4 (Homo sapiens, UniProt P56524); test: Deacetylation activity selectivity, HDAC4; format: biochemical
HDAC4, sequence (P56524 whole entry, species assumed): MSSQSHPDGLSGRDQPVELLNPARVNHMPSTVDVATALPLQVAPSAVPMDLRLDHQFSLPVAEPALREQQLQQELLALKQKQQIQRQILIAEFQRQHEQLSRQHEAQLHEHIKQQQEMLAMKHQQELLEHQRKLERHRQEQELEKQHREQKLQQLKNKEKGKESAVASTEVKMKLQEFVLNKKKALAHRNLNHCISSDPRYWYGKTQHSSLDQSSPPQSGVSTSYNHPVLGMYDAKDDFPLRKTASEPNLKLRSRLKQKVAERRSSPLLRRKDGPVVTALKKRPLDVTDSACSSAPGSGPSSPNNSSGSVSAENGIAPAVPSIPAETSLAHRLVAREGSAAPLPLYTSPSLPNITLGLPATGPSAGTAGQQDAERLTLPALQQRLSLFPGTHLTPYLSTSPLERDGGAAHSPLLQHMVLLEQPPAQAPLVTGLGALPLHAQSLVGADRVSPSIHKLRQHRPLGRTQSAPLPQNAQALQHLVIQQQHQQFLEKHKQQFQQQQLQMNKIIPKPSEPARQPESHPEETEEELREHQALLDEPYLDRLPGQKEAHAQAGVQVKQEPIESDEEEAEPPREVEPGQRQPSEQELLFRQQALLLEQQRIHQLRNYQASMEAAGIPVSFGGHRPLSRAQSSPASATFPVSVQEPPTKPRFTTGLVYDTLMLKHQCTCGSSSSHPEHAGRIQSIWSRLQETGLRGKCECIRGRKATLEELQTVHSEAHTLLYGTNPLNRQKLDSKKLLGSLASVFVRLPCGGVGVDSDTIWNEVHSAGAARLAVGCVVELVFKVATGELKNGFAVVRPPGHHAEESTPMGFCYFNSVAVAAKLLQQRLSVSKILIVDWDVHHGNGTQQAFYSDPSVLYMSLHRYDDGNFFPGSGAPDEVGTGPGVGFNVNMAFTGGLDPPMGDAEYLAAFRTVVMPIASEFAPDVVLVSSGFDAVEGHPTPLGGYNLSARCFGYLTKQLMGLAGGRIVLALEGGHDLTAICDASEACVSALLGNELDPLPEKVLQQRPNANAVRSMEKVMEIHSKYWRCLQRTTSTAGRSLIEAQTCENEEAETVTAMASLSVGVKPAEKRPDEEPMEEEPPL
Description: as §1

[3] = target: HDAC9 (Homo sapiens, UniProt Q9UKV0); test: Deacetylation activity selectivity, HDAC9; format: biochemical
HDAC9, sequence (Q9UKV0 whole entry, species assumed): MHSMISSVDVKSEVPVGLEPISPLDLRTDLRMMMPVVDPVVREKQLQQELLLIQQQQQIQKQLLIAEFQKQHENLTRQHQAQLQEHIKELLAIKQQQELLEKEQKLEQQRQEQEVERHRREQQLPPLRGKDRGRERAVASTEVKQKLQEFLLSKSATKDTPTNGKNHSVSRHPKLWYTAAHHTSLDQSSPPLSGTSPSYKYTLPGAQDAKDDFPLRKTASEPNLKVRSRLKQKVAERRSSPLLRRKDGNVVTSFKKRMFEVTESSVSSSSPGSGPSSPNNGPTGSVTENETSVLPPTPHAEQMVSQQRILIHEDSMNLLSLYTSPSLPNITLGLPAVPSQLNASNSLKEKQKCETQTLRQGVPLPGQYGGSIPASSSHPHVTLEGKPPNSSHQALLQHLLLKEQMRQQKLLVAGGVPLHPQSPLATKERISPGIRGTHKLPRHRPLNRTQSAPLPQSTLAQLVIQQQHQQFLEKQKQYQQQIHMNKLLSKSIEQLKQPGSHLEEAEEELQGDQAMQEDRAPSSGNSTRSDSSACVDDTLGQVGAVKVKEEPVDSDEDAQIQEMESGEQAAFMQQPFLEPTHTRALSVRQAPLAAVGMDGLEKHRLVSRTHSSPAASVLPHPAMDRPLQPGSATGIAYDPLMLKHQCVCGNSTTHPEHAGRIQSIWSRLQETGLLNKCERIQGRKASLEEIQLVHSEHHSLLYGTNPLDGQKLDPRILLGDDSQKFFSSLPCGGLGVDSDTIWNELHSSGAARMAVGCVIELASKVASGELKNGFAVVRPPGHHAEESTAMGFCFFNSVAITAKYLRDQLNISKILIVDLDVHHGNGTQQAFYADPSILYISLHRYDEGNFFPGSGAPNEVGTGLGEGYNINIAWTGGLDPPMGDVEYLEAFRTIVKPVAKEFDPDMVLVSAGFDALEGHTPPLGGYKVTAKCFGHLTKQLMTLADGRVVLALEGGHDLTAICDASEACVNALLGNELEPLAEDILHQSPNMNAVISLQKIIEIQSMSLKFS
Description: as §1

[4] = tested on: H3K9 acetylation (SIRT6 substrate); test: H3K9 acetylation in Hela cells, western blot; format: cell-based
Description: Cells were harvested and lysed in a lysis buffer (solarbio, R0010) supplementing 1 mM PMSF and protease inhibitor (TargetMol, USA). […] Then, the membranes were detected by Tanon 5200 (Tanon, Beijing, China).
To investigate the SIRT6 activity at cellular levels, we examined the acetylation status of H3K9, which is a well-known SIRT6 substrate. […] As these compounds can show violet fluorescence, intracellular localizations of these compounds were evaluated by confocal microscopy.

[5] = Glucose uptake and insulin secretion in vivo; design: species or system C57BL/6 mice; conditions: mice, 8a 10, 20, 30 mg/kg i.p. + glucose 2 g/kg vs glucose group; short term and long term (2 weeks)
Description: Male C57BL/6 mice (18 ± 2 g, 5 weeks old) were randomly divided into four groups with six mice per group. Acute drug toxicity test was performed. Mice were fasted for 6 h, and basal blood glucose and serum insulin levels were measured by using Accu-Check Performa (Roche, Swiss) glucose meter and Mouse Insulin ELISA kit (Solarbio). Compound 8a (10, 20, 30 mg/kg) was intraperitoneally injected for 10 min, followed by glucose (2 g/kg) intraperitoneally injected. The blood glucose concentration was measured at 30 and 60 min after glucose injection, and the serum insulin content of mice was measured at 60 min. Compound 8a was treated every other day for 2 weeks and tested for chronic drug toxicity. According to the above method, the serum glucose and insulin content of mice were measured.

HDAC1, sequence (Q13547 whole entry, species assumed): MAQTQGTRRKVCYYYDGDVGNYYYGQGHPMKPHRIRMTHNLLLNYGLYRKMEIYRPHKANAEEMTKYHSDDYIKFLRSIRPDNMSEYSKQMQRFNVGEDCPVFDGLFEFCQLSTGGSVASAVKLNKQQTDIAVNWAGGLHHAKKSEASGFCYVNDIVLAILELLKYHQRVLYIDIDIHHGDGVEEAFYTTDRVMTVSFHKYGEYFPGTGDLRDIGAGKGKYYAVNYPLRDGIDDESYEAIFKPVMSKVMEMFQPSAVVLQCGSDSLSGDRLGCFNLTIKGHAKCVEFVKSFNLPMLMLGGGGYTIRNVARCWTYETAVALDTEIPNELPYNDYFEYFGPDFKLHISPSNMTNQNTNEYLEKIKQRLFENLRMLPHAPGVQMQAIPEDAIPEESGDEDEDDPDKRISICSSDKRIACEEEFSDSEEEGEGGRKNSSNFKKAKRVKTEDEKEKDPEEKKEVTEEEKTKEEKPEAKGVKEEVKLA

Br.CN(C)C(SCCCCCCn1cnc2c(-c3cc(Br)c(Br)[nH]3)nccc21)=[N+](C)C.[Cl-] [Compound 8a]
IC50 [1]: > 200 µM
IC50 [2]: > 200 µM
IC50 [3]: > 200 µM
acetylation levels of H3K9 [4]: significantly increased
blood glucose and insulin concentration [5]: no significant difference
